Laboratory results published in patent US9067989B2, “Eotaxin-2 (CCL24) inhibitors in inflammatory, autoimmune, and cardiovascular disorders” (THE MEDICAL RESEARCH, INFRASTRUCTURE, AND HEALTH SERVICES …, priority 2009, dated 2015).

System: adjuvant induced arthritis
Assay: Adjuvant induced arthritis in Lewis rats
Type: in vivo, rat
Conditions: D8 100 μg 3x/week, methotrexate 0.25 mg/kg once weekly, from day 3, compared to PBS
Method: Adjuvant arthritis was induced in Lewis rats (six-week-old male Lewis rats obtained from Harlan, Israel) by injection of […]. […] was prepared by suspending heat-killed Mycobacterium Tuberculosis (Difco, Detroit, Mich.) in mineral oil at 10 mg/ml. Rats were injected intradermally with 100 μl adjuvant at the base of the tail. Arthritis developed by day 10 post injection.
Rats (8 per group) were treated by intraperitoneal (IP) injection with 3 monoclonal antibodies against eotaxin-2, (G7, G8, D8) 3×/week. Controls were treated with total mouse (non specific) IgG or PBS. Injections were started on the third day after adjuvant administration and were performed three times a week until the rats were sacrificed. […]
Arthritis severity was evaluated by measuring body weight, paw swelling, arthritic score and whole animal mobility. […]
Body weight in grams was measured every other day as an indicator of systemic inflammation.
Evaluation of Paw swelling. Ankle and wrist diameter in mm (to one place after the decimal point) were recorded three times a week using a caliper. […]
Finger and toe swelling was recorded according to their partial contribution: Ankles (feet): each toe scored 0.2; Wrist: each finger scored 0.25 Sum of all joints was calculated.
Whole animal Mobility was scored between 0-4, according to the following definitions: […]

CN(Cc1cnc2nc(N)nc(N)c2n1)c1ccc(C(=O)N[C@@H](CCC(=O)O)C(=O)O)cc1 [methotrexate]
protection against development of arthritis (arthritic score), prevention mode: significant, comparable protection
protection against development of arthritis (arthritic score), prevention mode (listed as MTX): statistically significant effect (p<0.05)
